Experimental data from patent US10774071B2, “PD-1/PD-L1 inhibitors” (Gilead Sciences, Inc., priority 2018, dated 2020).
Read-outs that look alike come from different tables or passages of the source.

Tests used:
PD-1/PD-L1 = PD-1/PD-L1 (Homo sapiens (Human), UniProt Q9NZQ7); assay: PD-1/PD-L1 biochemical protein-protein interaction assay (ALPHA); format: binding; conditions: read-out: IC50 PD-L1-PD1
PD-L1 = PD-L1 (Homo sapiens (Human), UniProt Q9NZQ7); assay: PD-L1/PD-L1 dimerization biochemical protein-protein interaction assay (ALPHA); format: binding; conditions: read-out: AC50 PDL1 Dimer 1 nM
Sequence of PD-L1 (Q9NZQ7 19-238): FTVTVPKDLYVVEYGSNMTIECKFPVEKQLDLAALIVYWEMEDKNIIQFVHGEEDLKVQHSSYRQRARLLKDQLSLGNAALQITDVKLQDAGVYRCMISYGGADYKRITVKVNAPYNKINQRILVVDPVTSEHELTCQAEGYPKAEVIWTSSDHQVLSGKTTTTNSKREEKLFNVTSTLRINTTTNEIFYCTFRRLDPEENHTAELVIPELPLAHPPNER
Sequence of PD-L1 (Q9NZQ7 19-238): as above

[1] = 0.3 nM His tagged PD-L1, 2.5 nM biotinylated Fc-PD-1, Table 3B
[2] = 0.5 nM His tagged PD-L1 and 0.5 nM FLAG tagged PD-L1, Table 4B
[3] = 0.3 nM His tagged PD-L1, 2.5 nM biotinylated Fc-PD-1, readings of 0.064 nM are equal to or less than 0.064 nM
[4] = 0.5 nM His tagged PD-L1 and 0.5 nM FLAG tagged PD-L1, Table 4A

Sequence of PD-1/PD-L1 (Q9NZQ7 19-238): as above

| Structure (SMILES) | IC50 (PD-1/PD-L1; [1]) [nM] | AC50 (PD-L1; [2]) [nM] | IC50 (PD-1/PD-L1; [3]) [nM] | AC50 (PD-L1; [4]) [nM] |
| --- | --- | --- | --- | --- |
| COc1nc(O[C@H]2CCc3c(-c4cccc(-c5cc(C)c(CN6C[C@@H]7C[C@]7(C(=O)O)C6)c(OC)n5)c4Cl)cccc32)c(Cl)cc1CNC[C@@H]1CCC(=O)N1 [B-132] | 0.266 | 301 |  |  |
| COc1nc(-c2cccc(-c3cccc4c3CC[C@@H]4Oc3nc(OC)c(CN(C)CC(=O)O)cc3Cl)c2Cl)ccc1CNC[C@@H]1CCC(=O)N1 [B-173] | 0.064 | 9.94 |  |  |
| COc1nc(-c2cccc(-c3cccc4c3CC[C@@H]4Nc3nc(OC)c(CN4C5CCC4(C(=O)O)CC5)nc3C(F)(F)F)c2Cl)ccc1CNC[C@@H]1CCC(=O)N1 [A-69] |  |  | ≤ 0.064 | 5.27 |
| COc1nc(-c2cccc(-c3cccc4c3CC[C@@H]4Nc3nc(OC)c(CNCC(=O)O)cc3C(F)(F)F)c2Cl)ccc1CNC[C@@H]1CCC(=O)N1 [A-65] |  |  | ≤ 0.064 | 14.7 |
| COc1nc(-c2cccc(-c3cccc4c3CC[C@@H]4Nc3nc(OC)c(CN4CC(C)(C(=O)O)C4)cc3C(F)(F)F)c2Cl)ccc1CNC[C@@H]1CCC(=O)N1 [A-53] |  |  | ≤ 0.064 | 16.2 |
| COc1nc(-c2cccc(-c3cccc4c3CC[C@@H]4Nc3nc(OC)c(CNCC(=O)O)nc3C(F)(F)F)c2Cl)ccc1CN1CC(O)C1 [A-73] |  |  | ≤ 0.064 | 15.7 |
| COc1nc(-c2cccc(-c3cccc4c3CC[C@@H]4Oc3nc(OC)c(CN[C@H](C)CC(=O)O)cc3C(F)(F)F)c2Cl)ccc1CN[C@H]1C[C@](C)(O)C1 [B-253] | 0.064 | 8.73 |  |  |
| COc1nc(-c2cccc(-c3cccc4c3CC[C@@H]4Oc3nc(OC)c(CN4CCC5CC4(C(=O)O)C5)cc3C(F)(F)F)c2Cl)ccc1CN1CC2(CCC(=O)N2)C1 [B-228] | 0.064 | 6.43 |  |  |
| COc1nc(O[C@H]2CCc3c(-c4cccc(-c5ccc(CNC[C@@H]6CCC(=O)N6)c(OCC#N)n5)c4Cl)cccc32)c(Cl)cc1CN1CC[C@@H](C(=O)O)C1 [B-19] | 0.064 | 9.33 |  |  |
| COc1nc(-c2cccc(-c3cccc4c3CC[C@@H]4Nc3nc(OC)c(CNCC(=O)O)nc3C(F)(F)F)c2Cl)ccc1CNC[C@@H]1CCC(=O)N1 [A-107] |  |  | ≤ 0.064 | 8.64 |
| COc1cc(N[C@H]2CCc3c(-c4cccc(-c5ccc(CNC[C@@H]6CCC(=O)N6)c(OC)n5)c4Cl)cccc32)c(C(F)(F)F)nc1CN1CC[C@@H](C(=O)O)C1 [A-43] |  |  | ≤ 0.064 | 9.89 |
| COc1nc(-c2cccc(-c3cccc4c3CC[C@@H]4Oc3nc(OC)c(CN(C)[C@@H](C)C(=O)O)cc3C(F)(F)F)c2Cl)ccc1CNC[C@@H]1CCC(=O)N1 [B-257] | 0.064 | 8.73 |  |  |
| COc1nc(-c2cccc(-c3cccc4c3CC[C@@H]4Oc3nc(OC)c(CN4CC5CCC4C5C(=O)O)cc3Cl)c2Cl)ccc1CNC[C@@H]1CCC(=O)N1 (some centres unmarked) [B-174] | 0.064 | 7.97 |  |  |
| COc1cc(-c2cccc(-c3cccc4c3CC[C@@H]4Nc3nc(OC)c(CNCC(=O)O)nc3C(F)(F)F)c2Cl)ccc1CNC1CC(O)(CF)C1 (some centres unmarked) [A-108] |  |  | ≤ 0.064 | 6.64 |
| COc1nc(-c2cccc(-c3cccc4c3CC[C@@H]4Oc3nc(OC)c(CNC4(C(=O)O)CC4)cc3C(F)(F)F)c2Cl)ccc1CN1CC2(C1)CN(C(C)=O)C2 [B-168] | 0.064 | 11.8 |  |  |
| COc1nc(-c2cccc(-c3cccc4c3CC[C@@H]4Nc3nc(OC)c(CNCC(N)=O)nc3C(F)(F)F)c2Cl)ccc1CNC[C@@H]1CCC(=O)N1 [A-103] |  |  | ≤ 0.064 | 40.2 |
| COc1nc(O[C@H]2CCc3c(-c4cccc(-c5ccc(CNC[C@@H]6CCC(=O)N6)c(OC)c5F)c4Cl)cccc32)c(Cl)cc1CN1CC[C@@H](C(=O)O)C1 [B-143] | 0.064 | 42.1 |  |  |
| COc1nc(-c2cccc(-c3cccc4c3CC[C@@H]4Oc3nc(OC)c(CN4C[C@H](C)C[C@H]4C(=O)O)cc3Cl)c2Cl)ccc1CNC[C@@H]1CCC(=O)N1 [B-185] | 0.064 | 10.9 |  |  |
| COc1nc(-c2cccc(-c3cccc4c3CC[C@@H]4Nc3nc(OC)c(CN[C@H](C(=O)O)C4CC4)nc3C(F)(F)F)c2Cl)ccc1CNC[C@@H]1CCC(=O)N1 [A-101] |  |  | ≤ 0.064 | 3.9 |
| COc1nc(-c2cccc(-c3cccc4c3CC[C@@H]4Nc3nc(OC)c(CNCC(=O)O)cc3C(F)(F)F)c2Cl)ccc1CN[C@H]1C[C@](C)(O)C1 [A-67] |  |  | ≤ 0.064 | 32.9 |

| Structure (SMILES) | IC50 (PD-1/PD-L1; [1]) [nM] | AC50 (PD-L1; [2]) [nM] | IC50 (PD-1/PD-L1; [3]) [nM] | AC50 (PD-L1; [4]) [nM] |
| --- | --- | --- | --- | --- |
| COc1nc(-c2cccc(-c3cccc4c3CC[C@@H]4Oc3nc(OC)c(CNC[C@H]4C[C@](C)(O)C4)cc3C(F)(F)F)c2Cl)ccc1CNC[C@@H]1CCC(=O)N1 [B-261] | 0.076 | 4.63 |  |  |
| COc1nc(O[C@H]2CCc3c(-c4cccc(-c5cnc(CNC[C@@H]6CCC(=O)N6)cn5)c4Cl)cccc32)c(Cl)cc1CN1CC(C(=O)O)C1 [B-96] | 0.064 | 48.7 |  |  |
| COc1nc(-c2cccc(-c3cccc4c3CC[C@@H]4Oc3nc(OC)c(CNC[C@@H]4CCC(=O)N4)nc3Br)c2Cl)cnc1CNC[C@@H]1CCC(=O)N1 [B-38] | 0.095 | 46.5 |  |  |
| COc1nc(O[C@H]2CCc3c(-c4cccc(-c5cnc(CNC[C@@H]6CCC(=O)N6)c(OC)n5)c4Cl)cccc32)c(C(F)(F)F)cc1CNC1(C(=O)O)CC1 [B-225] | 0.064 | 5.32 |  |  |
| COc1cc(N[C@H]2CCc3c(-c4cccc(-c5ccc(CNC[C@@H]6CCC(=O)N6)c(OC)n5)c4Cl)cccc32)c(Cl)cc1CN1CC[C@@H](C(=O)O)C1 [A-16] |  |  | ≤ 0.064 | 42.1 |
| COc1nc(-c2cccc(-c3cccc4c3CC[C@@H]4Oc3nc(OC)c(CN4CC[C@@H]5C[C@@]54C(=O)O)cc3C(F)(F)F)c2Cl)ccc1CN[C@H]1C[C@](C)(O)C1 [B-3] | 0.066 | 120 |  |  |
| COc1nc(-c2cccc(-c3cccc4c3CC[C@@H]4Nc3nc(OC)c(CN4CC5(C(=O)O)CCC4CC5)cc3C(F)(F)F)c2Cl)ccc1CNC[C@@H]1CCC(=O)N1 [A-1] |  |  | ≤ 0.064 | 13.2 |
| COc1nc(-c2cccc(-c3cccc4c3CC[C@@H]4Nc3nc(OC)c(CN4CCC[C@]4(C)C(=O)O)cc3C(F)(F)F)c2Cl)ccc1CNC[C@@H]1CCC(=O)N1 [A-38] |  |  | ≤ 0.064 | 16.9 |
| CNC(=O)C1CCN(Cc2cc(Cl)c(O[C@H]3CCc4c(-c5cccc(-c6cnc(CNC[C@@H]7CCC(=O)N7)c(OC)n6)c5Cl)cccc43)nc2OC)C1 (some centres unmarked) [B-28] | 0.088 | 26.9 |  |  |
| COc1nc(-c2cccc(-c3cccc4c3CC[C@@H]4Oc3nc(OC)c(CN4CCC[C@@H]4C(=O)O)cc3C(F)(F)F)c2Cl)ccc1CNC[C@@H]1CCC(=O)N1 [B-6] | 0.064 | 7.96 |  |  |
| COc1nc(-c2cccc(-c3cccc4c3CC[C@@H]4Oc3nc(OC)c(CNCCC(=O)O)cc3C(F)(F)F)c2Cl)ccc1CNC[C@@H]1CCC(=O)N1 [B-267] | 0.064 | 7.26 |  |  |
| COc1nc(-c2cccc(-c3cccc4c3CC[C@@H]4Oc3nc(OC)c(CN4CC5(C(=O)O)CCC4CC5)nc3Cl)c2Cl)ccc1CNC[C@@H]1CCC(=O)N1 [B-153] | 0.064 | 19 |  |  |
| COc1nc(-c2cccc(-c3cccc4c3CC[C@@H]4Nc3nc(OC)c(CNCC(=O)O)nc3C(F)(F)F)c2Cl)ccc1CNC[C@@H]1CC(O)C(=O)N1 (some centres unmarked) [A-46] |  |  | ≤ 0.064 | 7.18 |
| CNC(=O)C1CCN(Cc2cc(Cl)c(O[C@H]3CCc4c(-c5cccc(-c6ccc(CNC[C@@H]7CCC(=O)N7)c(OC)n6)c5Cl)cccc43)nc2OC)C1 (some centres unmarked) [B-88] | 0.064 | 26.4 |  |  |
| COc1nc(-c2cccc(-c3cccc4c3CC[C@@H]4Oc3nc(OC)c(CNC4(C(=O)O)CC5CCC4C5)cc3Cl)c2Cl)ccc1CNC[C@@H]1CCC(=O)N1 (some centres unmarked) [B-139] | 0.064 | 10.2 |  |  |
| COc1nc(O[C@H]2CCc3c(-c4cccc(-c5cc(F)c(CNC[C@@H]6CCC(=O)N6)c(OC)n5)c4Cl)cccc32)c(C(F)(F)F)cc1CN1CC2(C(=O)O)CCC1CC2 [B-190] | 0.064 | 8.98 |  |  |
| COc1cc(-c2cccc(-c3cccc4c3CC[C@@H]4Oc3nc(OC)c(CN4CC[C@@H](C(=O)O)C4)cc3Cl)c2Cl)ccc1CNC[C@@H]1CCC(=O)N1 [B-41] | 0.064 | 3.59 |  |  |
| COc1nc(-c2cccc(-c3cccc4c3CC[C@@H]4Oc3nc(OC)c(CN[C@H](C)C(=O)O)cc3C)c2Cl)ccc1CNC[C@@H]1CCC(=O)N1 [B-242] | 0.064 | 18.9 |  |  |
| COc1nc(-c2cccc(-c3cccc4c3CC[C@@H]4Oc3nc(OC4CC4)c(CN4CC[C@@H](C(=O)O)C4)cc3Cl)c2Cl)ccc1CNC[C@@H]1CCC(=O)N1 [B-200] | 0.064 | 20.1 |  |  |
| COc1nc(-c2cccc(-c3cccc4c3CC[C@@H]4Oc3nc(OC)c(CNCC(=O)O)cc3C(F)(F)F)c2Cl)ccc1CNC[C@@H]1CCC(=O)N1 [B-272] | 0.064 | 2.26 |  |  |
